Source: the NIST ThermoML archive (doi:10.1016/j.jct.2019.03.040)

What was measured:
[1] = Liquid; for thermal diffusivity: 101.33 kPa, Laser flash apparatus
[2] = molar heat capacity at constant pressure; conditions: 101.33 kPa, Liquid, Small sample (50 mg) DSC

COC(=O)CCC(C)=O [methyl levulinate]
Conditions | Critical pressure [kPa] | Critical temperature [K] | molar heat capacity at constant pressure [J/K/mol] | thermal diffusivity [m2/s]
[1], 303.15 K | – | – | – | 8e-08
[1], 313.15 K | – | – | – | 7.9e-08
[1], 323.15 K | – | – | – | 7.85e-08
[1], 333.15 K | – | – | – | 7.7e-08
[1], 343.15 K | – | – | – | 7.6e-08
[1], 353.15 K | – | – | – | 7.5e-08
[1], 363.15 K | – | – | – | 7.35e-08
[1], 373.15 K | – | – | – | 7.25e-08
[1], Resistive pulse heating | 3270 | 668 | – | –
[2], 302.68 K | – | – | 258.85 | –
[2], 303.18 K | – | – | 259.11 | –
[2], 303.68 K | – | – | 258.98 | –
[2], 304.18 K | – | – | 259.24 | –
[2], 304.68 K | – | – | 258.98 | –
[2], 305.18 K | – | – | 258.72 | –
[2], 305.68 K | – | – | 259.11 | –
[2], 306.18 K | – | – | 258.85 | –
[2], 306.68 K | – | – | 258.98 | –
[2], 307.18 K | – | – | 259.5 | –
[2], 307.68 K | – | – | 259.63 | –
[2], 308.18 K | – | – | 259.89 | –
[2], 308.68 K | – | – | 260.15 | –
[2], 309.18 K | – | – | 259.89 | –
[2], 309.68 K | – | – | 259.63 | –
[2], 310.18 K | – | – | 259.76 | –
[2], 310.68 K | – | – | 259.37 | –
[2], 311.18 K | – | – | 259.37 | –
[2], 311.68 K | – | – | 259.5 | –
[2], 312.18 K | – | – | 259.76 | –
[2], 312.68 K | – | – | 259.89 | –
[2], 313.18 K | – | – | 259.76 | –
[2], 313.68 K | – | – | 260.15 | –
[2], 314.18 K | – | – | 260.02 | –
[2], 314.68 K | – | – | 260.54 | –
[2], 315.18 K | – | – | 260.15 | –
[2], 315.68 K | – | – | 260.02 | –
[2], 316.18 K | – | – | 259.89 | –
[2], 316.68 K | – | – | 260.8 | –
[2], 317.18 K | – | – | 260.93 | –
[2], 317.68 K | – | – | 260.8 | –
[2], 318.18 K | – | – | 261.06 | –
[2], 318.68 K | – | – | 261.06 | –
[2], 319.18 K | – | – | 261.19 | –
[2], 319.68 K | – | – | 261.06 | –
[2], 320.18 K | – | – | 260.93 | –
[2], 320.68 K | – | – | 261.06 | –
[2], 321.18 K | – | – | 261.19 | –
[2], 321.68 K | – | – | 261.32 | –
[2], 322.18 K | – | – | 261.06 | –
[2], 322.68 K | – | – | 260.8 | –
[2], 323.18 K | – | – | 261.32 | –
[2], 323.68 K | – | – | 261.32 | –
[2], 324.18 K | – | – | 261.45 | –
[2], 324.68 K | – | – | 261.72 | –
[2], 325.18 K | – | – | 261.59 | –
[2], 325.68 K | – | – | 261.85 | –
[2], 326.18 K | – | – | 261.98 | –
[2], 326.68 K | – | – | 262.11 | –
[2], 327.18 K | – | – | 262.11 | –
[2], 327.68 K | – | – | 262.24 | –
[2], 328.18 K | – | – | 262.37 | –
[2], 328.68 K | – | – | 262.63 | –
[2], 329.18 K | – | – | 262.76 | –
[2], 329.68 K | – | – | 262.63 | –
[2], 330.18 K | – | – | 262.63 | –
[2], 330.68 K | – | – | 263.02 | –
[2], 331.18 K | – | – | 263.15 | –
[2], 331.68 K | – | – | 263.15 | –
[2], 332.18 K | – | – | 263.93 | –
[2], 332.68 K | – | – | 263.8 | –
[2], 333.18 K | – | – | 264.06 | –
[2], 333.68 K | – | – | 263.93 | –
[2], 334.18 K | – | – | 264.06 | –
[2], 334.68 K | – | – | 264.45 | –
[2], 335.18 K | – | – | 264.45 | –
[2], 335.68 K | – | – | 264.19 | –
[2], 336.18 K | – | – | 264.19 | –
[2], 336.68 K | – | – | 264.58 | –
[2], 337.18 K | – | – | 264.45 | –
[2], 337.68 K | – | – | 264.32 | –
[2], 338.18 K | – | – | 264.45 | –
[2], 338.68 K | – | – | 264.45 | –
[2], 339.18 K | – | – | 265.1 | –
[2], 339.68 K | – | – | 265.36 | –
[2], 340.18 K | – | – | 264.97 | –
[2], 340.68 K | – | – | 264.84 | –
[2], 341.18 K | – | – | 264.97 | –
[2], 341.68 K | – | – | 265.49 | –
[2], 342.18 K | – | – | 265.49 | –
[2], 342.68 K | – | – | 265.62 | –
[2], 343.18 K | – | – | 265.75 | –
[2], 343.68 K | – | – | 266.01 | –
[2], 344.18 K | – | – | 266.4 | –
[2], 344.68 K | – | – | 266.27 | –
[2], 345.18 K | – | – | 266.27 | –
[2], 345.68 K | – | – | 266.4 | –
[2], 346.18 K | – | – | 266.79 | –
[2], 346.68 K | – | – | 266.4 | –
[2], 347.18 K | – | – | 266.79 | –
[2], 347.68 K | – | – | 266.66 | –
[2], 348.18 K | – | – | 266.92 | –
[2], 348.68 K | – | – | 267.31 | –
[2], 349.18 K | – | – | 266.92 | –
[2], 349.68 K | – | – | 267.18 | –
[2], 350.18 K | – | – | 267.7 | –
[2], 350.68 K | – | – | 267.7 | –
[2], 351.18 K | – | – | 268.09 | –
[2], 351.68 K | – | – | 268.09 | –
[2], 352.18 K | – | – | 267.96 | –
[2], 352.68 K | – | – | 268.48 | –
[2], 353.18 K | – | – | 268.61 | –
[2], 353.68 K | – | – | 268.61 | –
[2], 354.18 K | – | – | 268.48 | –
[2], 354.68 K | – | – | 268.48 | –
[2], 355.18 K | – | – | 268.87 | –
[2], 355.68 K | – | – | 268.87 | –
[2], 356.18 K | – | – | 268.87 | –
[2], 356.68 K | – | – | 269.13 | –
[2], 357.18 K | – | – | 269.39 | –
[2], 357.68 K | – | – | 269.78 | –
[2], 358.18 K | – | – | 269.91 | –
[2], 358.68 K | – | – | 269.65 | –
[2], 359.18 K | – | – | 270.17 | –
[2], 359.68 K | – | – | 270.3 | –
[2], 360.18 K | – | – | 270.56 | –
[2], 360.68 K | – | – | 270.83 | –
[2], 361.18 K | – | – | 270.96 | –
[2], 361.68 K | – | – | 270.56 | –
[2], 362.18 K | – | – | 270.56 | –
[2], 362.68 K | – | – | 270.56 | –
[2], 363.18 K | – | – | 271.09 | –
[2], 363.68 K | – | – | 270.96 | –
[2], 364.18 K | – | – | 271.22 | –
[2], 364.68 K | – | – | 271.48 | –
[2], 365.18 K | – | – | 271.74 | –
[2], 365.68 K | – | – | 271.74 | –
[2], 366.18 K | – | – | 271.87 | –
[2], 366.68 K | – | – | 271.87 | –
[2], 367.18 K | – | – | 271.87 | –
[2], 367.68 K | – | – | 272.39 | –
[2], 368.18 K | – | – | 272.52 | –
[2], 368.68 K | – | – | 272.65 | –
[2], 369.18 K | – | – | 273.04 | –
[2], 369.68 K | – | – | 273.04 | –
[2], 370.18 K | – | – | 272.78 | –
[2], 370.68 K | – | – | 272.91 | –
[2], 371.18 K | – | – | 273.3 | –
[2], 371.68 K | – | – | 273.56 | –
[2], 372.18 K | – | – | 273.56 | –
[2], 372.68 K | – | – | 273.56 | –
[2], 373.18 K | – | – | 273.82 | –
[2], 373.68 K | – | – | 273.69 | –
